“Also recorded” adds a separate entry of the source. Where a SMILES comes first, the peptide text is derived from it. The star is where a group is joined. Cbz = O=C(OCc1ccccc1)*
Legend:
[1] = test system: HLA-E; test: Immunoblot of non-canonical MHC class I HLA-E; assay type: cell-based, human; details: MB135iDUX4 cells
Experimental: (§1) Protein samples were harvested in RIPA buffer [150 mM NaCl, 1% NP-40, 0.5% Na-deocycholate, 1% SDS, 25 mM Tris-HCl pH7.4] supplemented with protease and phosphatase inhibitor tablets (Pierce), followed by sonication in Diagenode Bioruptor. Lysate was cleared by centrifugation at 16000×g and quantified using a Pierce BCA assay (Thermo Fisher Scientific). Samples were run on NuPAGE precast polyacrylamide gels (Invitrogen) and transferred to PVDF membrane. Membranes were blocked in PBS containing 0.1% Tween-20 and 5% non-fat dry milk before overnight incubation at 4° C. with primary antibodies (see resource table for a list of antibodies used in this study). Membranes were incubated with horseradish peroxidase-conjugated secondary antibodies for 1 hour at room temperature and SuperSignal chemiluminescent substrate (Thermo Scientific) was used for detection on film with a Mini-medical 90 processor. Membranes were stripped with Restore Western Blot Stripping Buffer (Pierce).

[2] = test system: MHC-I, PSMB8, PSMB9, and PSMB10; test: Immunoblot of IFNG-induced MHC-I and immunoproteasome protein in MB135 myoblasts treated with inhibitors; assay type: cell-based, human; details: MB135 myoblasts without DUX4 induction, agent then IFNG 16 h; 4EGI-1 at 50 uM
Experimental: To test if mTOR inactivation was sufficient to block MHC-I and immunoproteasome protein levels in the absence of DUX4, parental MB135 myoblasts were treated with mTOR inhibitors everolimus or Torin2. Everolimus is a second-generation rapamycin analog with binding specificity for mTORC1. […] To further validate the role of 4EBP1 in blocking MHC-I and immunoproteasome protein expression, MB135 cells were treated with 4EGI-1, a small molecule that pharmacologically mimics 4EBP function and inhibits eIF4E.
as §1

[3] = test system: MHC-I, PSMB8, PSMB9, and PSMB10; test: as above; assay type: cell-based, human; details: MB135iDUX4 cells, data not shown
[4] = test system: interferon-stimulated genes IFIH1, ISG20, CXCL9, and CD74; test: IFNG induction of interferon-stimulated genes, RT-qPCR in MB135 cells with doxycycline-inducible transgenes; assay type: cell-based, human; details: MB135 cells, doxycycline-induced transgene, continuous protocol, IFNG 16 h
Experimental: (§2) All myoblast experiments were conducted in immortalized MB135 or MB200 myoblast cell lines (isolated from a control or FSHD2 subject, respectively cultured in Ham's F-10 Nutrient Mix (Gibco) supplemented with 15% fetal bovine serum (Hyclone), 100 U/100 μg/ml penicillin/streptomycin (Gibco), 1 μM dexamethasone (Sigma), and 10 ng/ml recombinant human basic fibroblast growth factor (PeproTech). To differentiate the myoblasts to myotubes, media was changed to DMEM supplemented with 10 μg/ml insulin (Sigma) and 10 μg/ml transferrin (Sigma). Cell lines containing doxycycline-inducible transgenes were additionally cultured with 2 μg/mL puromycin (Sigma). Transgenes were induced with 1 μg/mL of doxycycline (Sigma) for 4 hours prior to other treatments for a total of 20 hrs. The Kitra-SRS cells (RRID:CVCL_YI69) were provided by Dr. H. Otani and Osaka University (Nakai et al., 2019) and were cultured in DMEM supplemented with 10% fetal bovine serum (Hyclone) and 100 U/100 μg/ml penicillin/streptomycin (Gibco). Biological replicates consisted of independent but parallel experiments, such as simultaneously stimulating three cell culture plates with IFNγ. Technical replicates consisted of repeat measurements of the same biological sample, such as loading the same biological sample in triplicate for analysis by RT-qPCR.
(§3) Myoblasts were transfected with either (final concentrations) 10 μM 2′,3′-cGAMP (Sigma Aldrich), 2 μg/mL poly(I:C) (Invitrogen), or 1 μg/mL 3′ppp-dsRNA RIG-I ligand (Dan Stetson Lab, UW) using Lipofectamine 2000 according to manufacturer's protocol, or were stimulated with 1000U IFNβ (PeproTech) or 200 ng/ml IFNγ (R+D Systems) by addition directly to cell culture medium. After 16 hours of immune stimulation, RNA was collected from cells using the NucleoSpin RNA Kit (Macherey-Nagel) according to manufacturer's instructions. RNA samples were quantified by nanodrop and 1 μg of RNA per sample was treated with DNase I Amplification Grade (Thermo Fisher), and then synthesized into cDNA using the Superscript IV First-Strand Synthesis System, including oligo dT primers (Invitrogen). qPCR was run in 384-well plates on an Applied Biosystems QuantStudio 6 Flex Real-Time PCR System (ABI) and analyzed in Microsoft Excel.

[5] = test system: ISG induction by IFNG; test: RNA-seq of IFNG-induced genes in MB135 cells; assay type: cell-based, human; details: genes induced by IFNG (log 2 fold-change >3), doxycycline + IFNG
Experimental: RNA was extracted as described above from untreated, doxycycline-treated, IFNγ-treated, or doxycycline- and IFNγ-treated samples. RNA was submitted to the Fred Hutchinson Cancer Research Center Genomics Core for library preparation using the TruSeq3 Stranded mRNA kit (Illumina) followed by size and quality analysis by Tapestation (Agilent). Libraries were sequenced on a NextSeq P2-100 (Illumina).
Sequencing analysis was performed using R version 4.0.3 (R Core Team, 2020). Sequencing reads were trimmed using Trimmomatic (version 0.39) (Bolger et al., 2014, Trimmomatic: a flexible trimmer for Illumina sequence data. Bioinformatics 30, 2114-2120), and aligned to the Homo sapiens GRCh38 reference genome with the Rsubread aligner (Liao et al., 2019, The R package Rsubread is easier, faster, cheaper and better for alignment and quantification of RNA sequencing reads. Nucleic Acids Res 47, e47). Gene counts were analyzed using featureCounts (v2.0.1) (Liao et al., 2019, supra) and the Gencode v35 annotation file. Normalization and differential expression analysis were done with DESeq2 (v1.26.0) (Love et al., 2014, Moderated estimation of fold change and dispersion for RNA-seq data with DESeq2. Genome Biol 15, 550).

[6] = test system: ZSCAN4; test: Activation of DUX4 target gene ZSCAN4, RT-qPCR; assay type: cell-based, human; details: MB135 cells ± doxycycline
Experimental: as §2, §3

[7] = test system: H3.X/Y; test: Immunoblot of DUX4 target H3.X/Y proteins; assay type: cell-based, human; details: MB135 cells, continuous or pulsed protocol
Experimental: as §1

[8] = test system: MHC class I proteins (HLA-A/B/C); test: Immunoblot of IFNG-induced MHC class I protein, continuous or pulsed protocol, MB135 myoblasts; assay type: cell-based, human; details: MB135 cells; for suppression of IFNG-induced MHC class I protein, pulsed protocol: 4 h doxycycline pulse, IFNG added later for 16 h; for suppression of IFNG-induced MHC class I protein, continuous protocol: doxycycline 20 h, IFNG last 16 h
Experimental: (§4) In the “continuous” protocol (similar to the experiments shown in the prior FIGS. 1, 2, 4, 5, and 6), doxycycline is added to induce DUX4 expression at time 0 and four hours later IFNG is added for an additional 16 hours, resulting in 20 hours of continuous DUX4 induction with the last 16 hrs exposed to IFNG.
(§5) In the “pulsed” protocol, doxycycline is added at time 0 to induce DUX4 expression, but after four hours the media is changed to remove the doxycycline, resulting in a pulse of DUX4 mRNA and protein sufficient to induce DUX4 target gene expression (see Resnick et al., Cell Rep. 2019 Nov. 12; 29(7):1812-1820.e5). IFNG is added at 28 hours for a period of 16 hours prior to harvesting the cells. […] This difference is not likely to be due to different amounts of the DUX4 and mutant DUX4 proteins because at the time of harvest both DUX4 and the F67A mutant DUX4 protein levels have declined to similarly low amounts relative to the continuous protocol, but could be due to the activation of DUX4 target genes by the full-length DUX4 since the H3.X/Y proteins show persistent expression in the pulsed protocol.
as §1

[9] = test system: immunoproteasome subunits PSMB8, PSMB9, and PSMB10; test: Immunoblot of IFNG-induced immunoproteasome subunits; assay type: cell-based, human; details: MB135 cells; for suppression of IFNG-induced immunoproteasome subunit protein, pulsed protocol: 4 h doxycycline pulse, later IFNG 16 h; for suppression of IFNG-induced immunoproteasome subunit protein, continuous protocol: doxycycline 20 h, IFNG last 16 h
Experimental: as §4, §5, §1

[10] = test system: de novo protein synthesis; test: [35S]-methionine/cysteine metabolic labeling of nascent protein synthesis; assay type: cell-based; details: human myoblasts, 20-92 h after 4 h doxycycline pulse
Experimental: Cells were treated with and without a 4-hour pulse of doxycycline. Eight hours prior to harvest, cells were incubated in DMEM depleted for methionine and cysteine (Gibco) supplemented with 90 microcurie 35S-methionine/cysteine (Perkin Elmer) and 50 ng/ml […] (R&D Systems). Protein samples were harvested in RIPA buffer [150 mM NaCl, 1% NP-40, 0.5% Na-deocycholate, 1% SDS, 25 mM Tris-HCl pH7.4] supplemented with protease and phosphatase inhibitor tablets (Pierce), followed by sonication in Diagenode Bioruptor. Lysate was cleared by centrifugation at 16000×g and quantified using a Pierce BCA assay (Thermo Scientific). Samples were run on NuPAGE precast polyacrylamide gels (Invitrogen). Gels were stained with InstantBlue Coomassie (Abcam) following manufacturer protocol, placed on whatman paper, wrapped in plastic wrap, and dried. Gels were exposed to phosphor screen, imaged on Typhoon Trio imager, and analyzed with ImageQuant.

Molecule	effect on IFNG-induced HLA-E protein [1]	effect on IFNG-induced MHC-I and immunoproteasome protein in the absence of DUX4 [2]	rescue of post-transcriptional suppression after a pulse of DUX4 [3]	suppression of IFNG induction of ISGs (IFIH1, ISG20, CXCL9, CD74) [4]	suppression of IFNG induction of ISGs (IFIH1, ISG20, CXCL9, CD74) ([4]; listed as DUX4-F67A)	IFNG-induced genes whose induction was suppressed more than 2-fold (percent) [5] [%]	IFNG-induced genes whose induction was suppressed more than 4-fold (percent) [5] [%]	transcriptional activation of DUX4 target gene ZSCAN4 [6]	transcriptional activation of DUX4 target gene ZSCAN4 ([6]; listed as DUX4-F67A)	induction of DUX4 target H3.X/Y proteins [7]	suppression of IFNG-induced MHC class I protein, pulsed protocol ([8]; listed as DUX4(F67A))	suppression of IFNG-induced MHC class I protein, pulsed protocol ([8]; listed as DUX4-F67A)	suppression of IFNG-induced MHC class I protein, pulsed protocol ([8]; listed as F67A mutant)	suppression of IFNG-induced MHC class I protein, continuous protocol ([8]; listed as DUX4(F67A))	suppression of IFNG-induced MHC class I protein, continuous protocol ([8]; listed as DUX4-F67A)	suppression of IFNG-induced immunoproteasome subunit protein, pulsed protocol ([9]; listed as DUX4(F67A))	suppression of IFNG-induced immunoproteasome subunit protein, pulsed protocol ([9]; listed as DUX4 F67A)	suppression of IFNG-induced immunoproteasome subunit protein, continuous protocol ([9]; listed as DUX4(F67A))	suppression of IFNG-induced immunoproteasome subunit protein, continuous protocol ([9]; listed as DUX4 F67A)	nascent protein synthesis by 35S labeling [10]
CC(C)C[C@@H](C=O)NC(=O)[C@H](CC(C)C)NC(=O)[C@H](CC(C)C)NC(=O)OCc1ccccc1 [MG132] (Cbz-Leu-Leu-Leu-aldehyde)	stable expression of HLA-E protein	MHC class I induction, but not HLA-E is blocked	did not rescue post-transcriptional suppression																	
CO/C1=C\C(C)=C\[C@@H](C)[C@@H](O)[C@@H](C)C/C(C)=C/C=C/[C@H](OC)[C@@H]([C@@H](C)[C@@H](O)[C@H](C)[C@@]2(O)C[C@@H](O)[C@H](C)[C@@H](C(C)C)O2)OC1=O [Bafilomycin]			did not rescue post-transcriptional suppression																	
iDUX4-F67A: DUX4 with phenylalanine to alanine mutation in first homeodomain preventing DNA binding, SEQ ID NOS: 6-7				sufficient to block IFNG-induced ISG expression; also recorded: still suppressed ISG induction by IFNG	fully suppresses the ISG response to IFNG	70	41	did not activate ZSCAN4	prevents the transcriptional activation of DUX4 regulated genes	does not induce expression of the DUX4-regulated H3.X/Y	protein levels were completely rescued	does not suppress MHC class I in the pulse protocol	does not suppress MHC class I in the pulsed protocol	suppressed IFNG-induced MHC-I and the immunoproteasome expression	suppress the IFNG induction of MHC class I expression; also recorded: inhibits MHC class I proteins in only the continuous protocol	protein levels were completely rescued; also recorded: neither suppression of PSMB9 or altered 4EBP1 phosphorylation was observed	does not inhibit at all in the pulsed protocol	suppressed IFNG-induced MHC-I and the immunoproteasome expression	only partially inhibits the IFNG induction of PSMB9 and PSMB10 in the continuous protocol	did not suppress protein translation; also recorded: no significant change

— US20250339531A1, “DUX4 POLYPEPTIDES AND NUCLEIC ACIDS FOR TREATING INFLAMMATORY AND AUTOIMMUNE CONDITIONS” (Fred Hutchinson Cancer Center, priority 2021, published 2025)
